Source: patent publication US20040247589A1, “Anti-tumor activity from reptile serum” (priority 2001, published 2004)

Legend:
PN71 cells = experiment: Cell proliferation assay (BrdU) in PN71 cells; type: cell-based, murine
Protocol: (§1) Cell proliferation was assayed using the commercial ELISA kit BIOTRACK™ (RPN250, Amersham Life Sciences). The assay is based on incorporation of 5-bromo-2′-deoxyuridine (BrdU) during DNA synthesis. After treatment of cells with the tested agent for 24 hours, cells are incubated for 18 hours in the presence of 10 μM BrdU. This pyrimidine analog is incorporated into DNA and is detected using specific antibody conjugated to peroxidase following 3,3′,5′,5′-tetramethylbenzidine (TMB) as a substrate. The absorbance of the enzymatic product is measured at 450 nm.

normal bone marrow cells = experiment: Cell proliferation assay (BrdU) in normal bone marrow cells; type: cell-based; details: normal human bone marrow cells
Protocol: as §1

Nc1ccn([C@@H]2O[C@H](CO)[C@@H](O)[C@@H]2O)c(=O)n1 [Cytosar, Cytarabine]
effect on proliferation (BrdU) of PN71 cells (PN71 cells): indiscriminately destroys
effect on proliferation (BrdU) of normal bone marrow cells (normal bone marrow cells): indiscriminately destroys
